pIC50: −log10 of the molar value.
Tested on: microfilariae of Dirofilaria immitis
Assay: Dirofilaria immitis, Microfilaria (DiMF) Assay
Type: cell-based
Conditions: in vitro, stage (microfilaria or L4) not given, class A/B/C, read-out: D. immitis activity level (IC50 or MED)
Procedure: Heartworm Screen Dirofilaria immitis (D. immitis)
Dirofilaria immitis, Microfilaria (DiMF) Assay.
Compounds were dissolved and serially diluted in DMSO. Aliquots were spotted to the empty wells of assay plates. Media and microfilariae of Dirofilaria immitis were added to each well to dilute the test compounds to the desired concentrations. Assay plates were incubated for approximately 72 hours, and the larvae in each well were observed microscopically for drug effect. Microfilariae in each well were assessed subjectively for survival or paralysis, and results were reported as Minimum Effective Dose (MED).
Active and selective (DiL4 vs. DiMF potency) example compounds were subsequently evaluated in heartworm positive dog studies to correlate the in vitro selectivity profile with in vivo effects on circulating microfilariae.

2-(3-(5-isoprop- oxypyridin-2- yl)-1,2,4- thiadiazol-5- ylamino)-N,N- dimethyl-5- (trifluoromethyl) nicotinamide [Compound 250]
pIC50: > 6.70
